According to US7973018B2, “Cell cycle arrest and apoptosis” (University of Utah Research Foundation, priority 2004, dated 2011):
“Also recorded” adds a separate entry of the source.

How the values were obtained:
γ-H2AX = γ-H2AX focus formation, immunofluorescence confocal microscopy; type: cell-based, human
Protocol: (§1) Immunofluorescence staining. HeLa cells were harvested 48 h posttransduction by trypsinization. Single-cell suspensions of minced thymic tissue were prepared for immunostaining 20 h after HIV-1NL4-3 infection. Cells were fixed with 2% paraformaldehyde in phosphate-buffered saline (PBS) for 35 min at 4° C. and then washed three times for 5 min each time in PBS. All subsequent steps were carried out at room temperature. Samples were blocked and permeabilized for 20 min in blocking buffer (3% bovine serum albumin (BSA), 0.2% Triton X-100, and 0.01% skim milk in PBS). Primary antibody (rabbit anti-γ-H2AX (48) or rabbit anti-BRCA1 (Bethyl Laboratories, Montgomery, Tex.)) was diluted 1:400 in incubation buffer (1% BSA and 0.02% Triton X-100 in PBS) and incubated with cells for 45 min. Cells were washed with PBS, after which secondary antibody (goat anti-rabbit immunoglobulin G (IgG)-AlexaFluor568 conjugate (Molecular Probes, Eugene, Oreg.)) diluted 1:500 in incubation buffer was applied for 35 min. Cells were washed with PBS as before and mounted on glass slides by using Fluor Save reagent (CalBiochem, San Diego, Calif.). Cells were visualized for γ-H2AX or BRCA1 immunostaining and green fluorescent protein (GFP) expression by scanning fluorescence confocal microscopy (FluoView FV300; Olympus, Melville, N.Y.).
(§2) Drug treatment. Cells were incubated with 10 mM hydroxyurea (HU) for 2 h before immunostaining was done.
(§3) Vpr expression induces γ-H2AX and BRCA1 focus formation. It was possible that Vpr, through ATR activation, would induce γ-H2AX (9) and BRCA1 (45) focus formation. To test this hypothesis, HeLa cells were infected with pHR-Vpr or pHR-GFP and, 48 h later, immunostained with γ-H2AX- or BRCA1-specific antibodies. As a positive control, nontransduced cells were treated for […] with 10 mM HU 10 min prior to immunostaining (46). Samples then were visualized by fluorescence scanning confocal microscopy (FIGS. 3A and B). Cells with multiple (10 or more), intense nuclear foci were manually counted. […]

BRCA1 [1] = assay: BRCA1 focus formation, immunofluorescence confocal microscopy; type: cell-based, human
Protocol: as §1, §2, §3

ATR and ATM = conditions: references 40, 53; cited from earlier work
ATM and ATR = conditions: vpr-infected cells; references 5, 53; cited from earlier work
HeLa cells = assay: Cell cycle analysis (G2 arrest) by flow cytometry in HeLa cells; type: cell-based, human; parameters: key: P, phosphorylated; A, activated; N, necessary for G2 checkpoint activation; F, focus formation; ?, unknown; D, dispensable for G2 checkpoint activation; conditions: ATR target Rad17; this work
Protocol: Cell cycle analysis. At 48 h after infection, cells were detached by trypsinization, washed with fluorescence-activated cell sorting (FACS) buffer (2% FBS and 0.02% sodium azide in PBS), fixed with 2% paraformaldehyde in PBS, and permeabilized with 0.01% Triton X-100 in PBS for 15 min. Cells were washed again with FACS buffer, incubated in DNA staining buffer (10 μg of propidium iodide/ml and 11.25 kU of RNase A/ml in FACS buffer) for 15 min, and analyzed by FACScan flow cytometry for GFP expression or DNA content (Beckton Dickinson, Franklin Lakes, N.J.). In experiments involving transduction with lentivirus vectors, experiments with 90% transduction efficiency or higher were analyzed. […]
Lentivirus vectors. […] Vector titers were measured by infection of HeLa cells as described herein, followed by flow cytometric analysis of cells that were positive for the reporter molecule, GFP. Vector titers were calculated with the equation [(F×C0)/V]×D, where F is the frequency of GFP-positive cells found by flow cytometry, C0 is the total number of target cells at the time of infection, V is the volume of inoculum, and D is the virus dilution factor. […]
Rad17 is necessary for Vpr-mediated G2 arrest. […] At 48 h after transduction, cells were analyzed by flow cytometry for infection efficiency and DNA content, as reported by GFP expression and propidium iodide staining, respectively. […]

BRCA1 [2] = assay: Western blot for BRCA1 phospho-serine 1423; type: cell-based, human; conditions: HeLa cells infected with pHR-VPR, 48 hours post-transduction
Protocol: Western blotting procedures. All western blots were performed using the BioRad Criterion gel system (BioRad, Hercules, Calif.). Antibodies used were GADD45 (Santa Cruz Biotechnology, Santa Cruz, Calif.; sc-797), Actin (Santa Cruz Biotechnologies, Santa Cruz, Calif.; sc-797), CHK2 (Santa Cruz Biotechnology, Santa Cruz, Calif.; sc-8813), ATM (Novus Biologicals, Littleton, Colo.; catalog #100-104H1), phospho-JNK-Tyr183 (Cell Signaling Technology, Beverly, Mass.; catalog #9255S), phospho-p38 kinase (Promega, Madison; 15823207), JNK (Cell Signaling Technology, Beverly, Mass.; 9252), ATR (obtained from Dr. Paul Nghiem, Harvard), anti-rabbit secondary-HRP (Santa Cruz Biotechnology, Santa Cruz, Calif.; sc-2030), anti-goat secondary-HRP (Santa Cruz Biotechnology, Santa Cruz, Calif.; sc-2033), PARP (Cell Signaling Technology, Beverly, Mass.), BRCA1 phospho ser1423 (Bethyl Laboratories, Montgomery, Tex.) Rabbit primary antibodies against Rad17 (Santa Cruz Biotechnology, Santa Cruz, Calif.), and were applied for 90 min at room temperature. Blots were washed three times in TPBS (0.1% Tween 20 in PBS) for 10 min each time at room temperature.
Phosphorylation of BRCA1 at serine 1423 by HIV-1 Vpr is ATR-dependent. Following DNA damage, ATR phosphorylates BRCA1 at serine 1423 (45, 63). […]

Chk1 = conditions: ATR target Chk1; reference 40; cited from earlier work
p53 = test system: p53; parameters: key: P, phosphorylated; A, activated; N, necessary for G2 checkpoint activation; F, focus formation; ?, unknown; D, dispensable for G2 checkpoint activation; conditions: ATR target p53; reference 41; cited from earlier work
[3] = nontransduced HeLa cells treated for 1 h with 10 mM HU
[4] = HeLa cells, 48 h after infection, 10 or more intense nuclear foci

In the case of NC(=O)NO [HU, hydroxyurea, reference compound], the “cells exhibiting γ-H2AX foci” value (γ-H2AX; [3]) is reported as “Approximately 94%” and the “cells exhibiting BRCA1 foci” value (BRCA1 [1]; [3]) is reported as roughly 65%.

In the case of Cn1c(=O)c2c(ncn2C)n(C)c1=O [caffeine], the “relief of Vpr-induced G2 arrest” value (ATR and ATM) is given as “completely relieve Vpr-induced G2 arrest” and the “effect on Vpr-induced apoptosis” value (ATM and ATR) is given as “largely eliminated induction of apoptosis; also recorded: significantly reduces Vpr-induced apoptosis”.

In the case of “Vpr: HIV-1 accessory protein Vpr, expressed in cells from pHR-Vpr”, the “Status in the presence of Vpr (reference or source): Rad17” value (HeLa cells) is reported as “N (this work)”, the “Status in the presence of Vpr (reference or source): H2AX” value (γ-H2AX; ATR target H2AX, this work) is reported as “P, F (this work)” and the “cells exhibiting γ-H2AX foci” value (γ-H2AX; [4]) is reported as “Approximately 93%”. For the same compound, the “Status in the presence of Vpr (reference or source): BRCA1” value (BRCA1 [1]; ATR target BRCA1, this work) was “P, F (this work)”, the “cells exhibiting BRCA1 foci” value (BRCA1 [1]; [4]) was roughly 69% and the “phosphorylation of BRCA1 at serine 1423” value (BRCA1 [2]) was “induced phosphorylation of BRCA1 at serine 1423”. For the same compound, the “Status in the presence of Vpr (reference or source): Chk1” value (Chk1) was “P, A (40)” and the “Status in the presence of Vpr (reference or source): p53” value (p53) was “D (41)”.
